Data reported in article PMC4465063 (Mucosal immunology, 2014).

Assays:
purified cathepsin G = conditions: purified enzyme, in vitro; cited from earlier work
purified NE = conditions: purified enzyme, in vitro; cited from earlier work
neutrophil elastase (NE) = conditions: cited from earlier work
cathepsin G = conditions: cited from earlier work
plasmin = conditions: cited from earlier work
neutrophils = conditions: in vitro; cited from earlier work
K. pneumoniae = assay: In vivo neutrophil microbial killing assay; set-up: species or system Klebsiella pneumoniae strain 43816; conditions: thbs1^−/− mice; 10 µg/mouse i.p. 30 min prior to K. pneumoniae i.p.

Ac-DNCPFHYNP-NH2 [DP-9]
inhibition of purified cathepsin G (purified cathepsin G): ability to inhibit activity of purified cathepsin G in vitro

Ac-DNCPYVPNA-NH2 [DA-9]
inhibition of purified cathepsin G (purified cathepsin G): without reactive-site sequence similarity or known inhibitory activity | inhibition of purified NE (purified NE): without reactive-site sequence similarity or known inhibitory activity

Ac-DNCQYVYNV-NH2 [DV-9]
inhibition of purified cathepsin G (purified cathepsin G): inhibitory activity to both purified cathepsin G and NE | inhibition of purified NE (purified NE): inhibitory activity to both purified cathepsin G and NE

TSP-1: matricellular protein that exists as a trimer of identical ~150–180 kDa subunits tethered together by disulfide bonds
reversible inhibition of NE (neutrophil elastase (NE); in the absence of calcium): enhanced | stoichiometry: mol of NE bound per 1 mol of TSP-1 trimer (neutrophil elastase (NE); in the presence of calcium): 2.7 ± 0.3 mol | inhibition of purified NE (neutrophil elastase (NE); purified enzyme, in vitro): binds and competitively inhibits | Kd (neutrophil elastase (NE); read-out: site binding constant, TSP-1 trimer, NE, in the presence of calcium): 57 ± 13 nM | reversible inhibition of CG (cathepsin G; in the absence of calcium): enhanced | stoichiometry: mol of cathepsin G bound per 1 mol of TSP-1 trimer (cathepsin G; in the presence of calcium): 2.9 ± 0.4 mol | inhibition of purified cathepsin G (cathepsin G; purified enzyme, in vitro): binds and competitively inhibits | Kd (cathepsin G; read-out: site binding constant, TSP-1 trimer, cathepsin G, in the presence of calcium): 7 ± 3.5 nM | inhibition of plasmin (plasmin; in vitro, cleavage of fibrinogen): competitive inhibitor | predicted stoichiometry with plasmin (plasmin; stoichiometric predictions): one mole of TSP-1 interacting with one mole of plasmin | neutrophil motility and chemotaxis (neutrophils): can bind and induce the motility and chemotaxis of neutrophils in vitro

rTSP-1: recombinant TSP-1
bacterial killing function of thbs1^−/− neutrophils (K. pneumoniae): eliminated the enhanced bacterial killing function of thbs1^−/− neutrophils near to the level of WT neutrophils
